Results as given in patent US20260284189A1, “TREATMENT OF NON-SMALL CELL LUNG CANCER” (ASTRAZENECA AB, priority 2023, published 2026).

Columns and labels:
[1] = system: resectable non-small cell lung cancer (R-NSCLC); experiment: AEGEAN phase III: event-free survival (EFS) by blinded independent central review; format: in vivo, human
Excerpt: As used herein, the terms “event-free survival” or “EFS” refer to the time from randomization to the first of the following: a) local or distant recurrence as determined by BICR using RECIST 1.1 assessments; b) death due to any cause (event date is the date of death); c) PD that precludes surgery (event date is the date of this determination) or PD discovered and reported by the Investigator upon attempting surgery that prevents completion of surgery (event date is the date of the first attempt at surgery). Event-free survival can be analyzed using the log-rank test based on blinded independent central review (BICR) assessment using RECIST v1.1 and pathology review stratified by disease stage (Stage II versus Stage III) and by PD-L1 expression status (<1% versus >1%) on the mITT. The p-value can be obtained from the stratified log-rank test using the Efron (Hertz-Picciotto and Rockhill “Validity and efficiency of approximation methods for tied survival times in Cox regression.” Biometrics 1997; 53(3):1151-6.) approach for handling ties.
The AEGEAN (NCT03800134) study described herein is a phase III, double-blind, placebo-controlled, multi-center international study of assessed perioperative (i.e. neoadjuvant and adjuvant) durvalumab plus neoadjuvant chemotherapy for the treatment of patients with resectable stage II and stage III non-small cell lung cancer (R-NSCLC).
The study enrolled approximately 1300 patients and randomized approximately 800 eligible patients. Eligible patients had newly diagnosed, previously untreated, histologically or cytologically documented, resectable NSCLC (stage IIA to select [N2] stage IIIB according to the American Joint Committee on Cancer [AJCC] Cancer Staging Manual, version 8). Patients were randomized in a 1:1 ratio to receive either durvalumab plus a platinum-based chemotherapy before surgery followed by durvalumab post-surgery (Arm 1; a platinum-based chemotherapy plus durvalumab intravenously every three weeks (four cycles) before surgery, followed by durvalumab intravenously every four weeks (12 cycles)) or placebo plus a platinum-based chemotherapy before surgery followed by placebo post-surgery (Arm 2; a platinum-based chemotherapy plus placebo intravenously every three weeks (four cycles) before surgery, followed by placebo intravenously every four weeks (12 cycles)). Patients were also stratified by disease stage (Stage II versus Stage III) and by PD-L1 expression status (<1% versus ≥1%).
The two primary efficacy endpoints in this study were event-free survival (EFS; per blinded independent central review [BICR]) and pathological complete response (pCR; evaluated centrally). […]
Comparisons between the study arms were analyzed using stratified log-rank tests. […]

[2] = system: resectable non-small cell lung cancer (R-NSCLC); experiment: AEGEAN phase III: objective response prior to surgery, BICR (RECIST v1.1); format: in vivo, human; settings: mITT N = 366
Description: Tumors were evaluated per RECIST v1.1 using imaging collected at the following timepoints: baseline (≤28 days before randomization); after completing neoadjuvant treatment and before surgery; 5 weeks (±2 weeks) after surgery and before starting adjuvant treatment; every 12 weeks (±1 week) until Week 48 after surgery; every 24 weeks (±2 weeks) until Week 192 (i.e., ~4 years post-surgery); and every 48 weeks (±2 weeks) thereafter until local or distant recurrence, consent withdrawal, or death.
Efficacy assessments were performed and determined by pathology review or a BICR using RECIST 1.1 assessment, as applicable, including EFS (mITT and PD-L1 TC≥1% analysis set), pCR (mITT and PD-L1 TC≥1% analysis set), mPR (mITT and PD-L1 TC≥1% analysis set), DFS (modified resected set and PD-L1 TC≥1% resected set), and OS (mITT and PD-L1 TC≥1% analysis set). The EFS event of PD that precludes surgery or PD discovered during surgery that prevents completion of surgery will be determined by the Investigator.

[3] = system: PD-L1-mediated suppression of human T-cell activation; settings: in vitro; cited from earlier work
xenograft model = settings: via a T-cell dependent mechanism; cited from earlier work
[4] = mITT subgroup, durvalumab versus placebo, unstratified Cox model

Durvalumab: antibody that selectively binds PD-L1 and blocks binding of PD-L1 to PD-1 and CD80; arm given with platinum-based chemotherapy before surgery
EFS stratified hazard ratio, durvalumab arm versus placebo arm ([1]; mITT N=740, BICR, first interim analysis, 31.9% maturity, data cut-off Nov. 10, 2022): 0.68 | EFS HR, planned neoadjuvant platinum agent carboplatin [1, 4]: 0.73 | EFS HR, planned neoadjuvant platinum agent cisplatin [1, 4]: 0.59 | median EFS ([1]; mITT, BICR, first interim analysis, 31.9% maturity): not reached | Complete response: number of patients [2]: 4 | Complete response: patients [2]: (1.1) % | Not evaluable (objective response): number of patients [2]: 25 | Not evaluable (objective response): patients [2]: (6.8) % | Objective response rate [2]: (56.3) % | Objective response rate: number of patients [2]: 206 | Partial response: number of patients [2]: 202 | Partial response: patients [2]: (55.2) % | Progression: number of patients [2]: 11 | Progression: patients [2]: (3.0) % | Stable disease: number of patients [2]: 124 | Stable disease: patients [2]: (33.9) % | PD-L1-mediated suppression of human T-cell activation [3]: can relieve PD-L1-mediated suppression of human T-cell activation in vitro | tumor growth in a xenograft model (xenograft model): inhibits tumor growth in a xenograft model
